Reference: patent US20170027973A1, “MODULARION OF INVARIANT NATURAL KILLER T CELLS IN THE TREATMENT OF SEPSIS” (LONDON HEALTH SCIENCES CENTRE RESEARCH INC., priority 2014, published 2017)

What was measured:
Format in all cases: in vivo, mouse
serum IL-4 and IFN-γ = assay: Serum IL-4 and IFN-γ by ELISA after i.p. glycolipid injection into naïve B6 mice
Method: (§1) FIG. 10: Effect of glycolipid agonists on cytokine expression in naïve B6 mice, and on iNKT cells in septic B6 mice. (a) Naïve B6 mice were injected i.p. with 4 μg OCH or KRN7000 or C20:2, and bled at 2, 12, and 24 hours post-injection. Serum samples were assayed for IL-4 and IFN-γ by enzyme-linked immunosorbent assay (ELISA). […] Vehicle-treated mice had cytokine levels below limits of detection. (b) B6 mice were given an intraperitoneal injection of fecal slurry (500 μL of a 90 mg/mL solution) to induce IAS and concomitantly treated with 4 μg of vehicle, OCH, or KRN7000. After 24 hours, mice were sacrificed, and cell suspensions from the liver and spleen were stained for the flow cytometric detection of CD1d tetramer+ TCRβ+iNKT cells.
Lyophilized OCH was generously provided by the National Institutes of Health (NIH) Tetramer Core Facility (Emory University, Atlanta, Ga.). Each vial containing 0.2 mg of OCH was solubilized in a vehicle solution containing 1 mL of sterile distilled water, 0.5% Tween 20, 56 mg of sucrose and 7.5 mg of histidine, and stored as aliquots at 4° C. until use. KRN7000 (α-GalCer, C26:0/C18:0) was purchased from Funakoshi Co. Ltd. (Tokyo, Japan), solubilized at 1 mg/ml in dimethylsulphoxide (DMSO), and stored as aliquots at −20° C. until use (29); the control vehicle was 2% DMSO in phosphate-buffered saline (PBS). C20:2 was synthesized and used as previously published (30, 31). For in vivo experiments, mice were injected intraperitoneally (i.p.) with a single dose of glycolipid (4 μg/dose) (30) within twenty minutes after induction of IAS.
Cytokine concentrations were determined by commercially available specific ELISA assays for IL-4 and IFN-γ (Ready-Set-Go kits, eBioscience). ODs were measured on a Benchmark Microplate Reader (Bio-Rad) at a wavelength of 450 nm for both cytokines.

iNKT cells = assay: Flow cytometric detection of iNKT and T cells in spleen and liver of septic B6 mice; conditions: 24 hours
Method: as §1
To obtain hepatic lymphoid mononuclear cells (MNCs), mice were euthanized, and livers were flushed with sterile PBS before they were harvested and pressed through a 40-μm nylon mesh. The resulting homogenate was washed in cold PBS, resuspended in a 33.75% Percoll PLUS solution (GE Healthcare Bio-Sciences) and spun at 700×g for 12 min at room temperature. The pelleted cells were then treated with ACK lysis buffer to remove erythrocytes and washed in cold PBS prior to staining. To obtain omental lymphoid MNCs, the spleen, pancreas, and omentum were removed en-bloc and suspended in ice-cold PBS. The omenta floated above the spleen-pancreas complex and were removed and processed similar to the liver. Spleens were processed with a tissue homogenizer, and the resulting homogenate was washed in cold PBS. The pelleted cells were treated with ACK lysis buffer for 4 minutes to remove erythrocytes, and washed in cold PBS prior to staining.
Mouse hepatic, splenic, and omental cells (1×106), and human PBMCs (1×106) were washed with cold FACS buffer [PBS+2% fetal bovine serum (FBS)+0.1% sodium azide] and incubated with 5 μg/ml anti-mouse CD16/CD32 mAb (clone 2•4G2, Fc-block, eBiosciences) for 20 min on ice before staining with fluorescent monoclonal antibodies (mAbs) diluted in FACS buffer at 4° C. for 30-40 min. […]

[1] = tested on: bacterial counts in blood and multiple organs; assay: Microbial growth (CFU) from tissue homogenates and peripheral blood of septic mice; conditions: septic B6 mice; compared between vehicle, OCH and KRN7000 treatments
Method: Whole hearts, lungs (left and right), kidneys (left and right), spleen, and liver were removed from euthanized mice and homogenized in 5 mL of PBS. Homogenates were serially diluted 1:10 in PBS and plated on bovine heart infusion (BHI) agar. Plates were grown aerobically at 37° C. overnight to determine tissue colony-forming units (CFU). Intra-cardiac blood (10 μL) was collected in a heparinized syringe from the right ventricle, serially diluted 1:10 with PBS, and plated on BHIagar to determine blood CFU.

inflammatory cytokines = assay: Multiplex cytokine quantification in sera and spleens of septic B6 mice
Method: FIG. 5: Cytokine levels in the sera and spleens of septic B6 mice. […] Concentrations of iNKT cell-specific cytokines are shown from sera (b) and spleen homogenates (c) of septic mice treated with vehicle, OCH, or KRN7000 (n=4-8 per group). Concentrations of cytokines are shown in pg/mL. *p<0.05, **p<0.01, ***p<0.001 by one-way ANOVA with post-hoc Tukey's multiple comparison test. Data are representative of at least three independent experiments.
Serum was analyzed by bead-based multiplex assay for 32 different cytokines, chemokines, and growth factors (Eve Technologies, Calgary, Alberta, Canada) including granulocyte-colony stimulating factor (G-CSF), granulocyte macrophage-colony stimulating factor (GM-CSF), interferon-gamma (IFN-γ), interleukin (IL)-1α, IL-1β, IL-2, IL-3, IL-4, IL-5, IL-6, IL-7, IL-9, IL-10, IL-12 (p40), IL-12 (p70), IL-13, IL-15, IL-17A, IP-10, keratinocyte chemo-attractant (KC), leukemia inhibitory factor (LIF), lipopolysaccharide-induced CXC chemokine (LIX), monocyte chemotactic protein (MCP)-1, monocyte-colony stimulating factor (M-CSF), monokine induced by gamma interferon (MIG), macrophage inflammatory protein (MIP)-1α, MIP-1β, MIP-2, Regulated on Activation, Normal T cell Expressed and Secreted (RANTES), tumour necrosis factor (TNF)-α, and vascular endothelial growth factor (VEGF). Multiplex data was visualized using a cytokine heat map that was generated using Matrix2png (33).

[2] = KRN7000 compared to OCH-treated group

## CCCCCCCCCCCCCCCCCCCCCCCCCC(=O)N[C@@H](CO[C@H]1O[C@H](CO)[C@H](O)[C@H](O)[C@H]1O)[C@H](O)[C@H](O)CCCCCCCCCCCCCC [KRN7000, reference compound]
Serum IL-4 and IFN-γ; 4 μg i.p.
  serum levels of IFN-γ between 12 and 24 hours: elevated
iNKT cells
  detection of iNKT cells versus OCH treatment: significantly lower
  detection of iNKT cells versus vehicle: significantly reduced
[1]
  microbial load (bacterial counts in blood and multiple organs): similar
Inflammatory cytokines; [2]
  spleen IFN-γ: significantly elevated
  spleen IL-3: significantly elevated
  spleen IL-4: significantly elevated
  spleen IL-17: significantly elevated
  spleen TNF-α: significantly elevated

## CCCCCCCCCCCCCCCCCCCCCCCC(=O)N[C@@H](COC1OC(CO)C(O)C(O)C1O)[C@H](O)[C@H](O)CCCCC (stereo partly drawn) [OCH]
Serum IL-4 and IFN-γ; 4 μg i.p.
  serum IFN-γ at 24 hours: almost undetectable
Serum IL-4 and IFN-γ; 4 μg i.p., ELISA
  time of peak of serum IFN-γ: 12 h
  time of peak of serum IL-4: 2 h
Serum IL-4 and IFN-γ; 4 μg i.p., relative to 2 hour peak
  serum IL-4 at 12 to 24 hours: significantly reduced
Serum IL-4 and IFN-γ; OCH compared to KRN7000
  IL-4:IFN-γ ratio based on peak values: higher
iNKT cells
  detection of iNKT cells versus vehicle: significantly reduced
[1]
  microbial load (bacterial counts in blood and multiple organs): did not worsen
Inflammatory cytokines; OCH compared to KRN7000-treated
  serum mean concentration of IL-17: significantly lower
Inflammatory cytokines; compared to KRN7000-treated and vehicle-treated
  serum concentration of IL-13: higher
